Assay results: patent US6395760B1, “Pesticidal 1-arylpyrazoles” (Rhone-Poulenc Inc., priority 1997, dated 2002)

Columns and labels:
Set-up in all cases: key: ‘X’ means highly active; ‘+’ means moderately active; ‘−’ means low activity
Aphis gossypii = assay: Soil drench test (systemic activity), aphids on cotton plants; type: in vivo; conditions: 10.0 ppm soil concentration by weight, aphid counts at 5 DAT vs untreated control
Description: (§1) The Soil Drench Test (Systemic Activity) Cotton and sorghum plants were established in pots. One day prior to treatment, each pot was infested with about 25 aphids of a mixed population. Cotton plants were infested with aphids and sorghum plants were infested with the greenbug. The selected compound of formula (I) was applied to the soil surface in a dilution that delivered the equivalent of 10.0 ppm soil concentration by weight. Aphid counts were obtained at 5 DAT (=days after treatment). The number of aphids on the treated plants was compared to the number of those on the untreated control plants.

Schizaphis graminum = assay: Soil drench test (systemic activity), greenbug on sorghum plants; type: in vivo; conditions: 10.0 ppm soil concentration by weight, counts at 5 DAT vs untreated control
Description: as §1

Musca domestica = assay: Housefly bait/contact test; type: in vivo; conditions: 50 ppm in sugar water bait solution, adult houseflies, mortality after 24 hours
Description: The Housefly Bait/Contact Test About 25 four to six-day-old adult houseflies were anesthetized and placed in a cage with a sugar water bait solution containing the compound. The concentration of the selected compound of formula (I) in the bait solution was 50 ppm.

A. gossypii = assay: Foliar application (contact test) with aphids; type: in vivo, Aphis gossypii; conditions: 100 ppm formulation sprayed to runoff on aphid-infested cotton plants, dead aphids counted three days after treatment
Description: Foliar Application (Contact Test) with Aphids Aphid-infested cotton plants were placed on a revolving turntable, and sprayed to runoff with a 100 ppm formulation of the selected compound of formula (I). The treated, A. gossypii-infested plants were held for three days after treatment, after which the dead aphids were counted.

SMILES	Systemic activity on aphids (Aphis gossypii)	Systemic activity on greenbugs (Schizaphis graminum)	Activity on house flies by contact (Musca domestica)	Foliar activity on aphids (A. gossypii)
CSc1c(C2(C)OCC(CO)O2)nn(-c2c(Cl)cc(C(F)(F)F)cc2Cl)c1N (centres unmarked) [Compound 6]	+	X	−	−
CC1COC(C)(c2nn(-c3c(Cl)cc(C(F)(F)F)cc3Cl)c(N)c2S(C)(=O)=O)O1 (centres unmarked) [Compound 8]	X	X	X	X
